Measured values as given in ChEMBL document CHEMBL1201862, “PubChem BioAssay data set” (2004).
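In this assay, cells in 96-well plates receive the compound at five concentrations for 48 hours. Endpoints are linearly interpolated between the surrounding concentrations. Abbreviation: GI50, concentration required for 50% inhibition of growth.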 The source made the active and inactive calls. No stated cut-off is given here; in the data, active = GI50 up to about 1.1 µM and inactive = higher.

Experiments:
Assay in all cases: NCI tumour cell line growth inhibition, 48 h
A498 = tested on: A498
BT-549 = tested on: BT-549
CAKI-1 = tested on: CAKI-1
DU-145 = tested on: DU-145
HCC 2998 = tested on: HCC 2998
HCT-116 = tested on: HCT-116
HL-60 = tested on: HL-60
HT-29 = tested on: HT-29
LOX IMVI = tested on: LOX IMVI
MDA-MB-231 = tested on: MDA-MB-231
MOLT-4 = tested on: MOLT-4
NCI-H23 = tested on: NCI-H23
NCI-H522 = tested on: NCI-H522
RPMI-8226 = tested on: RPMI-8226
SF-268 = tested on: SF-268
SF-539 = tested on: SF-539
SK-MEL-28 = tested on: SK-MEL-28
SK-OV-3 = tested on: SK-OV-3
TK-10 = tested on: TK-10

Measured: GI50

CCOC(=O)C1=CNC2=N[C@H]3CCCC[C@@H]3N2C1=O
inactive: A498 > 100 µM | BT-549 > 100 µM | CAKI-1 > 100 µM | DU-145 > 100 µM | HCC 2998 > 100 µM | HCT-116 > 100 µM | HL-60 > 100 µM | HT-29 > 100 µM | LOX IMVI > 100 µM | MDA-MB-231 > 100 µM | MOLT-4 > 100 µM | NCI-H23 > 100 µM | NCI-H522 > 100 µM | RPMI-8226 > 100 µM | SF-268 > 100 µM | SF-539 > 100 µM | SK-MEL-28 > 100 µM | SK-OV-3 > 100 µM

Cc1cn([C@@H]2C[C@@H]2CO)c(=O)[nH]c1=O
inactive: A498 > 100 µM | BT-549 > 100 µM | CAKI-1 > 100 µM | DU-145 > 100 µM | HCC 2998 > 100 µM | HCT-116 > 100 µM | HL-60 > 100 µM | HT-29 > 100 µM | LOX IMVI > 100 µM | MDA-MB-231 > 100 µM | MOLT-4 > 100 µM | NCI-H23 > 100 µM | NCI-H522 > 100 µM | RPMI-8226 > 100 µM | SF-268 > 100 µM | SF-539 > 100 µM | SK-MEL-28 > 100 µM | TK-10 > 100 µM

COc1ccccc1N1C(=O)CSC1c1cc(OC)c(OC)c(OC)c1 (configuration not stated)
inactive: A498 > 100 µM | BT-549 > 34 µM | CAKI-1 > 35 µM | DU-145 > 100 µM | HCC 2998 > 100 µM | HCT-116 13.3 µM | HL-60 20.5 µM | HT-29 > 100 µM | LOX IMVI 35.6 µM | MDA-MB-231 > 100 µM | MOLT-4 27.9 µM | NCI-H23 > 100 µM | NCI-H522 17.7 µM | RPMI-8226 16.6 µM | SF-268 > 46.1 µM | SF-539 15.8 µM | SK-MEL-28 > 89.9 µM | TK-10 > 100 µM

O=C(C/C(=N/O)C(=O)NC1=C(Cl)C(=O)c2ccccc2C1=O)CC(c1ccccc1)c1c(O)c2ccccc2oc1=O (configuration not stated)
inactive: A498 46.6 µM | BT-549 16.4 µM | CAKI-1 17.3 µM | DU-145 3.27 µM | HCC 2998 11.9 µM | HCT-116 4.51 µM | HL-60 2.39 µM | HT-29 4.84 µM | LOX IMVI 3.39 µM | MDA-MB-231 4.57 µM | MOLT-4 17.9 µM | NCI-H23 3.63 µM | NCI-H522 13.2 µM | RPMI-8226 19.1 µM | SF-268 7.35 µM | SF-539 8.11 µM | SK-MEL-28 7.43 µM | SK-OV-3 39 µM

COC(=O)C1(CCC(=O)N(C)c2ccccc2)NNC2C(=O)N(c3ccccc3)C(=O)C21 (configuration not stated)
inactive: A498 > 10 µM | BT-549 > 10 µM | CAKI-1 > 10 µM | DU-145 > 10 µM | HCC 2998 > 10 µM | HCT-116 > 10 µM | HL-60 > 10 µM | HT-29 > 10 µM | LOX IMVI > 10 µM | MDA-MB-231 > 10 µM | NCI-H23 > 10 µM | NCI-H522 > 10 µM | RPMI-8226 > 10 µM | SF-268 > 10 µM | SF-539 > 10 µM | SK-MEL-28 > 10 µM | SK-OV-3 > 10 µM | TK-10 > 10 µM

O=C1/C(=C2/C(=O)N(c3ccccc3)c3ccccc32)Nc2ccccc21
inactive: A498 24.5 µM | BT-549 45 µM | CAKI-1 45.5 µM | DU-145 27 µM | HCC 2998 32.3 µM | HCT-116 36.6 µM | HT-29 59 µM | LOX IMVI 78.3 µM | MDA-MB-231 18.9 µM | MOLT-4 35.2 µM | NCI-H23 63.5 µM | NCI-H522 66.5 µM | RPMI-8226 > 100 µM | SF-268 36.4 µM | SK-MEL-28 > 100 µM | SK-OV-3 43.6 µM | TK-10 27 µM

CCOC(=O)c1cccc([N+](=O)[O-])c1N
inactive: A498 66.2 µM | BT-549 > 100 µM | CAKI-1 > 100 µM | DU-145 > 100 µM | HCC 2998 > 100 µM | HCT-116 > 100 µM | HL-60 > 100 µM | HT-29 > 100 µM | LOX IMVI > 100 µM | MDA-MB-231 > 100 µM | MOLT-4 > 100 µM | NCI-H23 > 100 µM | NCI-H522 > 100 µM | RPMI-8226 > 100 µM | SF-539 > 100 µM | SK-MEL-28 > 100 µM | SK-OV-3 > 100 µM | TK-10 > 100 µM

Cc1c(C#N)c2nnn(-c3ccc([N+](=O)[O-])cc3)c(=O)n2c1-c1ccccc1
inactive: A498 5.64 µM | BT-549 14.6 µM | CAKI-1 12.1 µM | DU-145 9.44 µM | HCC 2998 7.43 µM | HCT-116 6.62 µM | HL-60 14.7 µM | HT-29 8.53 µM | LOX IMVI 10.3 µM | MDA-MB-231 17.3 µM | NCI-H23 3.9 µM | NCI-H522 3.77 µM | RPMI-8226 3.13 µM | SF-268 14.7 µM | SF-539 14.6 µM | SK-MEL-28 19.2 µM | SK-OV-3 24.3 µM | TK-10 20 µM

O=C(c1cc(Cl)ccc1Cl)N1CCN(c2cccc(Cl)c2)CC1
inactive: A498 12.7 µM | BT-549 8.61 µM | CAKI-1 17.7 µM | DU-145 31.5 µM | HCC 2998 13.5 µM | HCT-116 11.4 µM | HL-60 38.4 µM | HT-29 12.4 µM | LOX IMVI 10.9 µM | MDA-MB-231 5.6 µM | MOLT-4 8.51 µM | NCI-H23 32.9 µM | NCI-H522 10.6 µM | RPMI-8226 22.3 µM | SF-268 27.9 µM | SF-539 13.6 µM | SK-MEL-28 15.6 µM | TK-10 49.5 µM

CC(=O)NC1C(OCc2ccccc2)OC(CO)C(O)C1OCC(=O)NC(C)C(=O)NC(CCC(=O)Nc1ccc2c(c1)CN1C(=O)c3ccccc3C1=N2)C(N)=O (configuration not stated)
inactive: A498 > 100 µM | BT-549 > 100 µM | CAKI-1 > 100 µM | DU-145 > 100 µM | HCC 2998 > 100 µM | HCT-116 > 100 µM | HL-60 > 100 µM | HT-29 > 100 µM | LOX IMVI > 100 µM | MDA-MB-231 > 100 µM | MOLT-4 89.1 µM | NCI-H23 > 100 µM | RPMI-8226 > 100 µM | SF-268 > 100 µM | SF-539 > 100 µM | SK-MEL-28 > 100 µM | SK-OV-3 > 100 µM | TK-10 > 100 µM

COc1cc(/C=C/C(=O)CC(=O)/C=C/c2cc(C)c(O)c(OC)c2)cc(C)c1O
inactive: A498 > 100 µM | BT-549 > 100 µM | CAKI-1 > 100 µM | DU-145 > 100 µM | HCC 2998 > 100 µM | HCT-116 58.3 µM | HL-60 38.9 µM | HT-29 > 100 µM | LOX IMVI > 100 µM | MDA-MB-231 > 100 µM | MOLT-4 > 100 µM | NCI-H23 > 100 µM | NCI-H522 > 100 µM | RPMI-8226 37.6 µM | SF-268 > 100 µM | SF-539 > 100 µM | SK-MEL-28 > 100 µM | SK-OV-3 > 100 µM
